What was measured:
CXCR4 receptor = conditions: animal and human studies; cited from earlier work
[1] = test system: LCN2 expression in SKBr3 cells; test: LCN2 levels in HER2+ SKBr3 cells by Western blotting; type: cell-based, human; conditions: SKBr3 cells incubated with inhibitor
Text: FIGS. 3A-D depict experiments showing that LCN2 (NGAL) is a down-stream target of the HER2/PI-3K/AKT/NF-κB pathway.
In addition, overexpression of dominant negative AKT led to reduced expression of LCN2, while overexpression of dominant active AKT increased LCN2 levels ([…]). […] Iannetti A, et al. “The neutrophil gelatinase-associated lipocalin (NGAL), a NF-kappaB-regulated gene, is a survival factor for thyroid neoplastic cells” Proc Natl Acad Sci USA 105(37) (2008) 14058.

SMILES | hematopoietic stem cell mobilization (CXCR4 receptor) | LCN2 expression [1]
c1cc(CN2CCCNCCNCCCNCC2)ccc1CN1CCCNCCNCCCNCC1 [AMD3100] | able to induce hematopoietic stem cell mobilization | 
Cc1ccc(S(=O)(=O)/C=C/C#N)cc1 [Bay11-7082] |  | reduced in a dose-dependent manner

Source: patent US20170088623A1, “Prophylaxis Against Cancer Metastasis” (Ingeneron, Inc., priority 2015, published 2017)
